Legend:
HEY-T30 xenografts = experiment: Synergy with cyclophosphamide, Taxol resistant subcutaneous xenografts; format: in vivo, nude mice; conditions: day 21; compound 5 10 mg/kg/day six days a week ip; cyclophosphamide 10 mg/kg six days a week orally; or both
A2780cis xenografts = experiment: Subcutaneous xenografts in nude mice, cisplatin resistant; format: in vivo; conditions: compound 5 15 mg/kg/day six days a week ip; cis-platinum 5.5 mg/kg one time a week ip
Description: (§1) Compound 6 was also efficacious against chemotherapy-resistant ovarian cancer. […] The effect of compound 6 in cisplatin resistant (A2780cis) and doxorubicin (Adriamycin) resistant (A2780ADR) tumors was studied. Briefly, each of these cell lines was subcutaneously inoculated into athymic nude mice and when the tumor size reached 100-200 mm^3, compound 6 150 mg/kg/day or its vehicle were given i.p. After 11 days of treatment, for the cisplatin-resistant tumors the tumor volume of the vehicle group was 2388±127 mm^3 and for compound 6 group 1032±108 mm^3 (mean±SEM; P<0.02); while for the doxorubicin-resistant tumors these values were: vehicle group=1369±337 mm^3 and compound 6 group=396±182 mm^3 (P<0.02).
To determine whether compound 5 is efficacious against chemotherapy-resistant ovarian cancer, three pairs of sensitive and resistant human ovarian cancer cell lines were grown as subcutaneous xenografts in nude mice and treated as summarized in FIG. 10. These cell lines were: A2780, sensitive to both cis-platinum and Adriamycin (doxorubicin); A2780cis, resistant to cis-platinum; A2780ADR, resistant to Adriamycin: HEY, sensitive to Taxol; HEY-T30, resistant to Taxol. The treatments administered were: vehicle control; compound 5, 15 mg/kg/day six days a week, ip; cis-platinum 5.5 mg/kg, one time a week ip; Adriamycin 3 mg/kg twice a week ip; and Taxol 20 mg/kg twice a week ip.

[1] = Ocular pharmacokinetics and biodistribution after eye drops; format: in vivo, New Zealand rabbits; parameters: unit not given here; conditions: rabbit, 20% eye drops
Description: The pharmacokinetics and biodistribution of compounds 1, 2, and 5 in the eye of rabbits were determined. Each of these compounds was dissolved in phosphate buffered saline (PBS) and used as eye drops. The eye drops were sterilized before application to rabbits by filtration through a 0.2 μm membrane. […] The eyes were harvested and eye tissues and the lacrimal glands were dissected, homogenized and the test compounds were extracted by acetonitrile and analyzed by HPLC, as described under Compound Synthesis described herein. Compounds 1 and 2 were detected at 328 nm, and compound 5 at 260 nm. […] All three compounds can unexpectedly, readily, and rapidly reach the posterior chamber of the eye.

[2] = tested on: SKOV-3 human ovarian cancer cell xenografts; experiment: Intraperitoneal luciferase-expressing SKOV-3 tumors in nude mice; format: in vivo; conditions: 15 mg/kg ip once a day, six days a week
Description: The ability of compound 5 to inhibit the growth of human ovarian cancer cell xenografts in nude mice was determined. A mouse model that recapitulates the features of peritoneal spread was used, the peritoneal spread being the clinically most relevant presentation of ovarian cancer. In this model, luciferase-expressing ovarian cancer cells are injected intraperitoneally (ip) into nude mice. Multiple tumors grow in the peritoneal cavity and their growth is monitored periodically using the IVIS Lumina II imaging system following the intraperitoneal administration of luciferin, the substrate of luciferase. The luciferase gene was transfected into SKOV-3 cells, and 2×10^6 cells were intraperitoneally injected into mice. Two weeks later, when tumors had grown, mice treatment was started by intraperitoneally injecting compound 5, 15 mg/kg or vehicle (corn oil), once a day, six days a week (n=10 mice/group).
When the tumor volume of the compound 5 treated mice at the end of the study is compared to that of the day when treatment started (baseline), compound 5 caused 53% tumor regression, with 3 out of 10 mice having barely detectable tumors by imaging and no tumors visible at necropsy.
as §1

A549 lung cancer = experiment: 24 hr growth inhibition of cell line; format: cell-based; conditions: Homo sapiens
Description: (§2) The therapeutic efficacy of compounds 2, 5, and 6 was assessed in human and murine cell lines of varied tissue origin, and their 24 hr 50% inhibitory concentration was determined by following standard methodologies. Typical results are shown in the Table 5, indicating a broad anticancer effect.

RAW264 murine macrophage = experiment: 24 hr growth inhibition of cell line; format: cell-based; conditions: Mus musculus, RAW264.7, 24 h
Description: as §2

HCT116 colon cancer = experiment: 24 hr growth inhibition of cell line; format: cell-based; conditions: Homo sapiens, HCT-116, 24 h
Description: as §2

AGS gastric cancer = experiment: 24 hr growth inhibition of cell line; format: cell-based; conditions: Homo sapiens
Description: as §2

[3] = tested on: 5′-cap dependent translation initiation; experiment: Renilla-Firefly luciferase dual translation assay in SKOV-3 cells; format: cell-based, human
Description: (§3) FIG. 13A: Compound 5 induces the phosphorylation of eIF2α, confirming integrated stress response. p-eIF2αinduces ATF4 that suppresses 5′-cap dependent translation initiation, shown below. […] The levels of reporter proteins used in the translation assay (Pierce™ Renilla-Firefly Luciferase Dual Assay Kit; Thermo Scientific, Grand Island, NY) were normalized to the levels of intracellular FLUC-RLUC transcripts and are shown as percent of untreated control cells. RLU=Relative light units. 5′-cap dependent translation initiation was much less and occurred later. Values: Mean±SEM; *, p<0.05 and **, p<0.01 vs. control. […] Loading controls: β-actin and GADPH.

eIF2α = experiment: Phosphorylation in SKOV-3 cells (integrated stress response); format: cell-based, human
Description: as §3

VEGF-A = experiment: Secreted VEGF in culture medium by ELISA; format: cell-based, human
Description: The effect of compounds 2, 5, and 6 on VEGF production was examined. For example, SKOV-3 ovarian cancer cells grown in culture were treated with compound 5 1×IC50 for up to 24 h. Secreted VEGF was assayed in the culture medium by ELISA (R&D Systems). […] For example, at 24 h, the reduction of secreted VEGF-A over the corresponding controls was: OVCAR3=100%, A2780=86%, A2780cis=100%, and A2780ADR=100%. Compound 5 suppressed VEGF-B by 90-92% compared to control. The anti-VEFG effect of Compound 5 is as strong in the drug-resistant as in the drug-sensitive cell lines.

CCN(CC)CCCCNC(=O)c1ccccc1SC/C=C(\C)CC/C=C(\C)CCC=C(C)C [Compound 5]
inhibition of tumor growth compared to control (HEY-T30 xenografts): 26% | growth of platinum-resistant xenografts (A2780cis xenografts): as efficacious as in the platinum sensitive xenografts | Drug level in Vitreous [1]: 0.0 | Drug level in Ciliary body ([1]; 40 min): 0.0 | Drug level in Conjunctiva ([1]; 40 min): 33.2 | Drug level in Cornea ([1]; 40 min): 75.7 | Drug level in Iris ([1]; 40 min): 0.6 | Drug level in Lens ([1]; 40 min): 0.0 | Drug level in Retina ([1]; 40 min): 1.8 | Drug level in Sclera ([1]; 40 min): 1.3 | Drug level in Ciliary body ([1]; 60 min): 4.2 | Drug level in Conjunctiva ([1]; 60 min): 35.1 | Drug level in Cornea ([1]; 60 min): 96.7 | Drug level in Iris ([1]; 60 min): 1.9 | Drug level in Lens ([1]; 60 min): 0.0 | Drug level in Retina ([1]; 60 min): 3.4 | Drug level in Sclera ([1]; 60 min): 0.6 | Drug level in Vitreous ([1]; 60 min): 0.0 | reduction of tumor volume compared to control ([2]; day 24): 153% | mice having barely detectable tumors by imaging and no tumors visible at necropsy ([2]; end of study): 3 out of 10 | tumor regression vs baseline (day treatment started) ([2]; end of study): 53% | IC50 (A549 lung cancer): 19 µM | IC50 (RAW264 murine macrophage): 5 µM | IC50 (HCT116 colon cancer): 10 µM | IC50 (AGS gastric cancer): 14 µM | 5′-cap dependent translation initiation [3]: suppresses predominantly | phosphorylation of eIF2α (eIF2α): induces | reduction of secreted VEGF-A over controls (VEGF-A; A2780, 24 h): 86% | reduction of secreted VEGF-A over controls (VEGF-A; A2780ADR, 24 h): 100% | reduction of secreted VEGF-A over controls (VEGF-A; A2780cis, 24 h): 100% | reduction of secreted VEGF-A over controls (VEGF-A; OVCAR3, 24 h): 100% | suppression of secreted VEGF-A levels (VEGF-A; SKOV-3, 1×IC50, 6 hr): 80% | suppression of secreted VEGF-A levels (VEGF-A; SKOV-3, 1×IC50, 24 hr): 100%
